Assay results from patent publication US12459958B2, “Tricyclic compounds as HPK1 inhibitor and the use thereof” (BEIGENE, LTD., priority 2019, dated 2025).
pIC50: −log10 of the molar value.

Biological target: T1, HPK1 kinase (aa1-346, Life Technologies) (Homo sapiens, UniProt Q92918)
T1 construct: HPK1 kinase (aa1-346, Life Technologies); purchased Life Technologies
T1 sequence (Q92918 1-346): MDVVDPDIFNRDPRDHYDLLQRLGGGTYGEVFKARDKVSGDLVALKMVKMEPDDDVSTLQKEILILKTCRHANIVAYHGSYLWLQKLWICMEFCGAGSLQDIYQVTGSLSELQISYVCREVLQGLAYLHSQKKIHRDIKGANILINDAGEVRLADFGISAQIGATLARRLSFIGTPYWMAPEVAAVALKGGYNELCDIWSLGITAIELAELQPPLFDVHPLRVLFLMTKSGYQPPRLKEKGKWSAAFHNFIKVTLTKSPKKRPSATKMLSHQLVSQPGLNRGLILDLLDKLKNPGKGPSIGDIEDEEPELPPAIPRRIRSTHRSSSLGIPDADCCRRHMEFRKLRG
Assay: HPK Kinase Activity Assay at 1 mM ATP (TR-FRET)
Type: biochemical
Details: HPK1 kinase 40 nM, 0.5 μM STK1 substrate, read-out: Enzymatic activity IC50
Method: HPK Kinase Activity Assay at 1 mM ATP
Compounds disclosed herein were tested for inhibition of HPK1 kinase (aa1-346, Life Technologies) activity in assays based on the time-resolved fluorescence-resonance energy transfer (TR-FRET) methodology. The assays were carried out in 384-well low volume black plates in a reaction mixture containing HPK1 kinase (40 nM), 1 mM ATP, 0.5 μM STK1 substrate and 0-10 μM compound in buffer containing 50 mM HEPES, 0.01% BSA, 0.1 mM Orthovanadate, 10 mM MgCl2, 1 mM DTT, pH=7.0, 0.005% Tween-20. The kinase was incubated with the compounds disclosed herein or DMSO for 60 minutes at room temperature and the reaction was initiated by the addition of ATP and STK1 substrate. After reaction at room temperature for 120 minutes, an equal volume of stop/detection solution was added according to the manufacture's instruction (CisBio). The stop/detection solution contained STK Antibody-Cryptate and XL665-conjugated streptavidin in Detection Buffer. The TR-FRET signals (ratio of fluorescence emission at 665 nm over emission at 620 nm with excitation at 337 nm wavelength) were recorded on a PHERAstar FS plate reader (BMG Labtech). Phosphorylation of STK1 substrate led to the binding of STK Antibody-Cryptate to the biotinylated STK1 substrate, which places fluorescent donor (Eu^3+ crypate) in close proximity to the accepter (Streptavidin-XL665), thus resulting in a high degree of fluorescence resonance energy transfer. The inhibition of HPK1 in presence of increasing concentrations of compounds was calculated based on the ratio of fluorescence at 665 nm to that at 620 nm. The IC50 for each compound was derived from fitting the data to the four-parameter logistic equation by Graphpad Prism software.

| Structure (SMILES) | pIC50 |
| --- | --- |
| Cc1cc(-c2cnc3[nH]cc(-c4ccc(C(=O)N(C)C)cc4)c3c2)cc2c1N1CCN(C)CC1CC2 (stereo not drawn) [Example 1, 4-(5-(3,10-dimethyl-2,3,4,4a,5,6-hexahydro-1H-pyrazino[1,2-a]quinolin-8-yl)-1H-pyrrolo[2,3-b]pyridin-3-yl)-N,N-dimethylbenzamide] | 7.51 |
| Cc1cc(-c2cnc3[nH]cc(-c4ccc(C(=O)N(C)C[C@H](C)O)cc4)c3c2)cc2c1N1CCN(C)C[C@H]1CC2 [Example 2A, 4-(5-((R)-3,10-dimethyl-2,3,4,4a,5,6-hexahydro-1H-pyrazino[1,2-a]quinolin-8-yl)-1H-pyrrolo[2,3-b]pyridin-3-yl)-N—((S)-2-hydroxypropyl)-N-methylbenzamide] | 7.85 |
| Cc1cc(-c2cnc3[nH]cc(-c4ccc(C(=O)N(C)C[C@H](C)O)cc4)c3c2)cc2c1N1CCN(C)C[C@@H]1CC2 [Example 2B, 4-(5-((S)-3,10-dimethyl-2,3,4,4a,5,6-hexahydro-1H-pyrazino[1,2-a]quinolin-8-yl)-1H-pyrrolo[2,3-b]pyridin-3-yl)-N—((S)-2-hydroxypropyl)-N-methylbenzamide] | 7.72 |
| Cc1cc(-c2cnc3[nH]cc(-c4ccc(C(=O)N(C)C[C@@H](C)O)cc4)c3c2)cc2c1N1CCN(C)C[C@H]1CC2 [Example 3A, 4-(5-((R)-3,10-dimethyl-2,3,4,4a,5,6-hexahydro-1H-pyrazino[1,2-a]quinolin-8-yl)-1H-pyrrolo[2,3-b]pyridin-3-yl)-N—((R)-2-hydroxypropyl)-N-methylbenzamide] | 7.68 |
| Cc1cc(-c2cnc3[nH]cc(-c4ccc(C(=O)N(C)C[C@@H](C)O)cc4)c3c2)cc2c1N1CCN(C)C[C@@H]1CC2 [Example 3B, 4-(5-((S)-3,10-dimethyl-2,3,4,4a,5,6-hexahydro-1H-pyrazino[1,2-a]quinolin-8-yl)-1H-pyrrolo[2,3-b]pyridin-3-yl)-N—((R)-2-hydroxypropyl)-N-methylbenzamide] | 7.74 |
| Cc1cc(-c2cnc3[nH]cc(-c4ccc(C(=O)N(C)C[C@@H]5CCOC5)cc4)c3c2)cc2c1N1CCN(C)C[C@H]1CC2 [Example 4A, 4-(5-((R)-3,10-dimethyl-2,3,4,4a,5,6-hexahydro-1H-pyrazino[1,2-a]quinolin-8-yl)-1H-pyrrolo[2,3-b]pyridin-3-yl)-N-methyl-N—(((S)-tetrahydrofuran-3-yl)methyl)benzamide] | 7.85 |
| Cc1cc(-c2cnc3[nH]cc(-c4ccc(C(=O)N(C)C[C@@H]5CCOC5)cc4)c3c2)cc2c1N1CCN(C)C[C@@H]1CC2 [Example 4B, 4-(5-((S)-3,10-dimethyl-2,3,4,4a,5,6-hexahydro-1H-pyrazino[1,2-a]quinolin-8-yl)-1H-pyrrolo[2,3-b]pyridin-3-yl)-N-methyl-N—(((S)-tetrahydrofuran-3-yl)methyl)benzamide] | 7.82 |
| Cc1cc(-c2cnc3[nH]cc(-c4ccc(C(=O)N(C)C[C@H]5CCOC5)cc4)c3c2)cc2c1N1CCN(C)C[C@H]1CC2 [Example 5A, 4-(5-((R)-3,10-dimethyl-2,3,4,4a,5,6-hexahydro-1H-pyrazino[1,2-a]quinolin-8-yl)-1H-pyrrolo[2,3-b]pyridin-3-yl)-N-methyl-N—(((R)-tetrahydrofuran-3-yl)methyl)benzamide] | 7.49 |
| Cc1cc(-c2cnc3[nH]cc(-c4ccc(C(=O)N(C)C[C@H]5CCOC5)cc4)c3c2)cc2c1N1CCN(C)C[C@@H]1CC2 [Example 5B, 4-(5-((S)-3,10-dimethyl-2,3,4,4a,5,6-hexahydro-1H-pyrazino[1,2-a]quinolin-8-yl)-1H-pyrrolo[2,3-b]pyridin-3-yl)-N-methyl-N—(((R)-tetrahydrofuran-3-yl)methyl)benzamide] | 7.57 |

Continued, values first:

| pIC50 | Structure (SMILES) |
| --- | --- |
| 7.44 | Cc1cc(-c2c[nH]c3ncc(-c4cc(C)c5c(c4)CC[C@@H]4CN(C)CCN54)nc23)ccc1C(=O)N(C)C [Example 6A, (R)-4-(2-(3,10-dimethyl-2,3,4,4a,5,6-hexahydro-1H-pyrazino[1,2-a]quinolin-8-yl)-5H-pyrrolo[2,3-b]pyrazin-7-yl)-N,N,2-trimethylbenzamide] |
| 7.33 | Cc1cc(-c2c[nH]c3ncc(-c4cc(C)c5c(c4)CC[C@H]4CN(C)CCN54)nc23)ccc1C(=O)N(C)C [Example 6B, (S)-4-(2-(3,10-dimethyl-2,3,4,4a,5,6-hexahydro-1H-pyrazino[1,2-a]quinolin-8-yl)-5H-pyrrolo[2,3-b]pyrazin-7-yl)-N,N,2-trimethylbenzamide] |
| 7.64 | Cc1cc(-c2cnc3[nH]cc(-c4ccc(C(=O)N(C)C)cc4)c3n2)cc2c1N1CCN(C)C[C@H]1CC2 [Example 7A, (R)-4-(2-(3,10-dimethyl-2,3,4,4a,5,6-hexahydro-1H-pyrazino[1,2-a]quinolin-8-yl)-5H-pyrrolo[2,3-b]pyrazin-7-yl)-N,N-dimethylbenzamide] |
| 7.66 | Cc1cc(-c2cnc3[nH]cc(-c4ccc(C(=O)N(C)C)cc4)c3n2)cc2c1N1CCN(C)C[C@@H]1CC2 [Example 7B, (S)-4-(2-(3,10-dimethyl-2,3,4,4a,5,6-hexahydro-1H-pyrazino[1,2-a]quinolin-8-yl)-5H-pyrrolo[2,3-b]pyrazin-7-yl)-N,N-dimethylbenzamide] |
| 7.24 | Cc1cc(-c2c[nH]c3ncc(-c4cc(C)c5c(c4)CC[C@@H]4CN(C)CCN54)nc23)ccc1C(=O)N1CC2(COC2)C1 [Example 8A, (R)-(4-(2-(3,10-dimethyl-2,3,4,4a,5,6-hexahydro-1H-pyrazino[1,2-a]quinolin-8-yl)-5H-pyrrolo[2,3-b]pyrazin-7-yl)-2-methylphenyl)(2-oxa-6-azaspiro[3.3]heptan-6-yl)methanone] |
| 7.21 | Cc1cc(-c2c[nH]c3ncc(-c4cc(C)c5c(c4)CC[C@H]4CN(C)CCN54)nc23)ccc1C(=O)N1CC2(COC2)C1 [Example 8B, (S)-(4-(2-(3,10-dimethyl-2,3,4,4a,5,6-hexahydro-1H-pyrazino[1,2-a]quinolin-8-yl)-5H-pyrrolo[2,3-b]pyrazin-7-yl)-2-methylphenyl)(2-oxa-6-azaspiro[3.3]heptan-6-yl)methanone] |
| 7.77 | Cc1cc(-c2cnc3[nH]cc(-c4ccc(C(=O)N5CC6(COC6)C5)cc4)c3n2)cc2c1N1CCN(C)C[C@H]1CC2 [Example 9A, (R)-(4-(2-(3,10-dimethyl-2,3,4,4a,5,6-hexahydro-1H-pyrazino[1,2-a]quinolin-8-yl)-5H-pyrrolo[2,3-b]pyrazin-7-yl)phenyl)(2-oxa-6-azaspiro[3.3]heptan-6-yl)methanone] |
| 7.68 | Cc1cc(-c2cnc3[nH]cc(-c4ccc(C(=O)N5CC6(COC6)C5)cc4)c3n2)cc2c1N1CCN(C)C[C@@H]1CC2 [Example 9B, (S)-(4-(2-(3,10-dimethyl-2,3,4,4a,5,6-hexahydro-1H-pyrazino[1,2-a]quinolin-8-yl)-5H-pyrrolo[2,3-b]pyrazin-7-yl)phenyl)(2-oxa-6-azaspiro[3.3]heptan-6-yl)methanone] |
| 7.77 | Cc1cc(-c2cnc3[nH]cc(-c4ccc(C(=O)N(C)C[C@@H]5CCOC5)cc4)c3n2)cc2c1N1CCN(C)C[C@H]1CC2 [Example 10A, 4-(2-((R)-3,10-dimethyl-2,3,4,4a,5,6-hexahydro-1H-pyrazino[1,2-a]quinolin-8-yl)-5H-pyrrolo[2,3-b]pyrazin-7-yl)-N-methyl-N—(((S)-tetrahydrofuran-3-yl)methyl)benzamide] |
| 7.77 | Cc1cc(-c2cnc3[nH]cc(-c4ccc(C(=O)N(C)C[C@@H]5CCOC5)cc4)c3n2)cc2c1N1CCN(C)C[C@@H]1CC2 [Example 10B, 4-(2-((S)-3,10-dimethyl-2,3,4,4a,5,6-hexahydro-1H-pyrazino[1,2-a]quinolin-8-yl)-5H-pyrrolo[2,3-b]pyrazin-7-yl)-N-methvl-N—(((S)-tetrahydrofuran-3-yl)methyl)benzamide] |
| 7.28 | Cc1cc(-c2c[nH]c3ncc(-c4cc(C)c5c(c4)CC[C@@H]4CN(C)CCN54)nc23)ccc1C(=O)N(C)C[C@@H]1CCOC1 [Example 11A, 4-(2-((R)-3,10-dimethyl-2,3,4,4a,5,6-hexahydro-1H-pyrazino[1,2-a]quinolin-8-yl)-5H-pyrrolo[2,3-b]pyrazin-7-yl)-N,2-dimethyl-N—(((S)-tetrahydrofuran-3-yl)methyl)benzamide] |
| 7.28 | Cc1cc(-c2c[nH]c3ncc(-c4cc(C)c5c(c4)CC[C@H]4CN(C)CCN54)nc23)ccc1C(=O)N(C)C[C@@H]1CCOC1 [Example 11B, 4-(2-((S)-3,10-dimethyl-2,3,4,4a,5,6-hexahydro-1H-pyrazino[1,2-a]quinolin-8-yl)-5H-pyrrolo[2,3-b]pyrazin-7-yl)-N,2-dimethyl-N—(((S)-tetrahydrofuran-3-yl)methyl)benzamide] |
